The results in this text go back to PubChem BioAssay AID1259407 (Chemical Carcinogenesis Research Information System (CCRIS), 2018).

The subject of the data set is CCRIS mutagenicity, Ames/micronucleus/aberration tests. The data set can be described thus: CCRIS mutagenicity studies. An excerpt: The CCRIS database contains chemical records with carcinogenicity, mutagenicity, tumor promotion, and tumor inhibition test results. It was developed by the National Cancer Institute (NCI). Data are derived from studies cited in primary journals, current awareness tools, NCI reports, and other sources. Test results have been reviewed by experts in carcinogenesis and mutagenesis.
CCRIS provides historical information from the years 1985 - 2011. It is no longer updated.
This is an archive assay for CCRIS mutagenicity studies.

The mark [1] stands for this setting: Test System: AMES SALMONELLA TYPHIMURIUM, Strain/Indicator: TA98, Metabolic Activation: NONE, Method: PREINCUBATION
The mark [2] stands for this setting: Test System: AMES SALMONELLA TYPHIMURIUM, Strain/Indicator: TA100, Metabolic Activation: NONE, Method: PREINCUBATION
Setting [3] is: Test System: AMES SALMONELLA TYPHIMURIUM, Strain/Indicator: TA1535, Metabolic Activation: NONE, Method: PREINCUBATION
[4] abbreviates: Test System: E.COLI, Strain/Indicator: WP2UVRA/PKM101, Metabolic Activation: NONE, Method: PREINCUBATION
[5] abbreviates: Test System: AMES SALMONELLA TYPHIMURIUM, Strain/Indicator: TA98, Metabolic Activation: NONE, Method: STANDARD PLATE.
Setting [6] is: Test System: AMES SALMONELLA TYPHIMURIUM, Strain/Indicator: TA100, Metabolic Activation: NONE, Method: STANDARD PLATE.
Where [7] appears, read: Test System: AMES SALMONELLA TYPHIMURIUM, Strain/Indicator: TA1537, Metabolic Activation: NONE, Method: PREINCUBATION

The source made the active and inactive calls. No rule for the calls is given here.

Turning to `C=CC(O)C=C`, the mutagenic call was “inactive; negative” under setting [1]; “inactive; negative” (Test System: AMES SALMONELLA TYPHIMURIUM, Strain/Indicator: TA98, Metabolic Activation: S-9, Method: PREINCUBATION); “inactive; negative” under setting [2]; “active; positive” (Test System: AMES SALMONELLA TYPHIMURIUM, Strain/Indicator: TA100, Metabolic Activation: S-9, Method: PREINCUBATION); “inactive; negative” under setting [3]; “inactive; negative” (Test System: AMES SALMONELLA TYPHIMURIUM, Strain/Indicator: TA1535, Metabolic Activation: S-9, Method: PREINCUBATION). Also, the mutagenic call under setting [4] was “inactive; negative” and the mutagenic call (Test System: E.COLI, Strain/Indicator: WP2UVRA/PKM101, Metabolic Activation: S-9, Method: PREINCUBATION) is “inactive; negative”.
Take `CCOP(=O)(OCC)Oc1cc(-c2ccccc2)on1`: the mutagenic call was “inactive; negative” under setting [5]; “inactive; negative” (Test System: AMES SALMONELLA TYPHIMURIUM, Strain/Indicator: TA98, Metabolic Activation: RAT, LIVER, S-9, Method: STANDARD PLATE); “inactive; negative” under setting [6]; “inactive; negative” (Test System: AMES SALMONELLA TYPHIMURIUM, Strain/Indicator: TA100, Metabolic Activation: RAT, LIVER, S-9, Method: STANDARD PLATE).
On to `CC(=O)Nc1ccc(S(=O)(=O)Cl)cc1`, for which the mutagenic call is “inactive; negative” under setting [1]; “inactive; negative” (Test System: AMES SALMONELLA TYPHIMURIUM, Strain/Indicator: TA98, Metabolic Activation: RAT LIVER S-9, PHENOBARBITAL AND BETA-NAPHTHOFLAVONE, Method: PREINCUBATION); “inactive; negative” under setting [2]; “inactive; negative” (Test System: AMES SALMONELLA TYPHIMURIUM, Strain/Indicator: TA100, Metabolic Activation: RAT LIVER S-9, PHENOBARBITAL AND BETA-NAPHTHOFLAVONE, Method: PREINCUBATION); “inactive; negative” (Test System: AMES SALMONELLA TYPHIMURIUM, Strain/Indicator: TA102, Metabolic Activation: NONE, Method: PREINCUBATION); “inactive; negative” (Test System: AMES SALMONELLA TYPHIMURIUM, Strain/Indicator: TA102, Metabolic Activation: RAT LIVER S-9, PHENOBARBITAL AND BETA-NAPHTHOFLAVONE, Method: PREINCUBATION). Moreover, the mutagenic call (Test System: AMES SALMONELLA TYPHIMURIUM, Strain/Indicator: TA104, Metabolic Activation: NONE, Method: PREINCUBATION) was “inactive; negative”; the mutagenic call (Test System: AMES SALMONELLA TYPHIMURIUM, Strain/Indicator: TA104, Metabolic Activation: RAT LIVER S-9, PHENOBARBITAL AND BETA-NAPHTHOFLAVONE, Method: PREINCUBATION) was “inactive; negative”; the mutagenic call under setting [3] is “inactive; negative”; the mutagenic call (Test System: AMES SALMONELLA TYPHIMURIUM, Strain/Indicator: TA1535, Metabolic Activation: RAT LIVER S-9, PHENOBARBITAL AND BETA-NAPHTHOFLAVONE, Method: PREINCUBATION) is “inactive; negative”; the mutagenic call under setting [7] is “inactive; negative”; the mutagenic call (Test System: AMES SALMONELLA TYPHIMURIUM, Strain/Indicator: TA1537, Metabolic Activation: RAT LIVER S-9, PHENOBARBITAL AND BETA-NAPHTHOFLAVONE, Method: PREINCUBATION) is “inactive; negative”. Further, the mutagenic call runs as follows: under setting [4], “inactive; negative”; (Test System: E.COLI, Strain/Indicator: WP2UVRA/PKM101, Metabolic Activation: RAT LIVER S-9, PHENOBARBITAL AND BETA-NAPHTHOFLAVONE, Method: PREINCUBATION) “inactive; negative”; (Test System: E.COLI, Strain/Indicator: WP2UVRA, Metabolic Activation: NONE, Method: PREINCUBATION) “inactive; negative”; (Test System: E.COLI, Strain/Indicator: WP2UVRA, Metabolic Activation: RAT LIVER S-9, PHENOBARBITAL AND BETA-NAPHTHOFLAVONE, Method: PREINCUBATION) “inactive; negative”.
As for `CC1(C)COCN1`, the mutagenic call (End Point: In vitro chromosomal aberrations, Test System: Chinese hamster ovary (CHO) cells, Metabolic Activation: None) is “active; positive”; the mutagenic call (End Point: In vitro chromosomal aberrations, Test System: Chinese hamster ovary (CHO) cells, Metabolic Activation: S-9) was “active; positive”; the mutagenic call (Test System: Mouse lymphoma, Strain/Indicator: L5178Y (TK+/TK-), Metabolic Activation: None, Method: Not specified by DPR) is “active; positive (purity 78%)”; the mutagenic call (Test System: Mouse lymphoma, Strain/Indicator: L5178Y (TK+/TK-), Metabolic Activation: S-9, Method: Not specified by DPR) was “active; positive (purity 78%)”.
Turning to `C[C@]12CC[C@@H]3c4ccc(O)cc4CC[C@H]3[C@@H]1CCC2=O`, the mutagenic call is, setting by setting: (End Point: IN VITRO CHROMOSOMAL ABERRATIONS, Test System: CHO CELLS, Metabolic Activation: NONE) “active; positive”; (End Point: IN VITRO MICRONUCLEUS, Test System: MCF-7 (HUMAN MAMMARY CARCINOMA), Metabolic Activation: NONE) “active; positive”; (Test System: UDS RAT HEPATOCYTES, Strain/Indicator: THY INCORP (18-20 HR), Metabolic Activation: NONE, Method: LIQUID SCINTILLATION COUNTING) “inactive; negative”.
`N/C(=N\O)c1cc(O)c(O)c(O)c1`: the mutagenic call was “active; positive” (Test System: AMES SALMONELLA TYPHIMURIUM, Strain/Indicator: TA97, Metabolic Activation: NONE, Method: STANDARD PLATE); “active; positive” (Test System: AMES SALMONELLA TYPHIMURIUM, Strain/Indicator: TA97, Metabolic Activation: RAT, LIVER, S-9, DELOR 103, Method: STANDARD PLATE); “inactive; negative” under setting [5]; “inactive; negative” (Test System: AMES SALMONELLA TYPHIMURIUM, Strain/Indicator: TA98, Metabolic Activation: RAT, LIVER, S-9, DELOR 103, Method: STANDARD PLATE); “inactive; negative” under setting [6]; “inactive; negative” (Test System: AMES SALMONELLA TYPHIMURIUM, Strain/Indicator: TA100, Metabolic Activation: RAT, LIVER, S-9, DELOR 103, Method: STANDARD PLATE). Besides, the mutagenic call by setting is: (Test System: AMES SALMONELLA TYPHIMURIUM, Strain/Indicator: TA102, Metabolic Activation: NONE, Method: STANDARD PLATE) “inactive; negative”; (Test System: AMES SALMONELLA TYPHIMURIUM, Strain/Indicator: TA102, Metabolic Activation: RAT, LIVER, S-9, DELOR 103, Method: STANDARD PLATE) “inactive; negative”.
Turning to `ClC1(Cl)C2(Cl)C3(Cl)C4(Cl)C(Cl)(Cl)C5(Cl)C3(Cl)C1(Cl)C5(Cl)C24Cl` (stereo not given), the mutagenic call runs as follows: (Test System: AMES SALMONELLA TYPHIMURIUM, Strain/Indicator: TA98, Metabolic Activation: HAMSTER, LIVER, S-9, AROCLOR 1254, Method: PREINCUBATION) “inactive; negative”; under setting [1], “inactive; negative”; (Test System: AMES SALMONELLA TYPHIMURIUM, Strain/Indicator: TA98, Metabolic Activation: RAT, LIVER, S-9, AROCLOR 1254, Method: PREINCUBATION) “inactive; negative”; (Test System: AMES SALMONELLA TYPHIMURIUM, Strain/Indicator: TA100, Metabolic Activation: HAMSTER, LIVER, S-9, AROCLOR 1254, Method: PREINCUBATION) “inactive; negative”; under setting [2], “inactive; negative”; (Test System: AMES SALMONELLA TYPHIMURIUM, Strain/Indicator: TA100, Metabolic Activation: RAT, LIVER, S-9, AROCLOR 1254, Method: PREINCUBATION) “inactive; negative”. The mutagenic call runs as follows: (Test System: AMES SALMONELLA TYPHIMURIUM, Strain/Indicator: TA1535, Metabolic Activation: HAMSTER, LIVER, S-9, AROCLOR 1254, Method: PREINCUBATION) “inactive; negative”; under setting [3], “inactive; negative”; (Test System: AMES SALMONELLA TYPHIMURIUM, Strain/Indicator: TA1535, Metabolic Activation: RAT, LIVER, S-9, AROCLOR 1254, Method: PREINCUBATION) “inactive; negative”; (Test System: AMES SALMONELLA TYPHIMURIUM, Strain/Indicator: TA1537, Metabolic Activation: HAMSTER, LIVER, S-9, AROCLOR 1254, Method: PREINCUBATION) “inactive; negative”; under setting [7], “inactive; negative”; (Test System: AMES SALMONELLA TYPHIMURIUM, Strain/Indicator: TA1537, Metabolic Activation: RAT, LIVER, S-9, AROCLOR 1254, Method: PREINCUBATION) “inactive; negative”.
